pIC50: −log10 of the molar value. Square brackets hold non-standard residues; d marks the D form. Peptide text beside a SMILES is read from it. * marks the point of attachment. Alaψ(CH2NMeCH2CH2OH) = C[C@@H](CN(C)CCO)N*; Cha = N[C@@H](CC1CCCCC1)C(=O)O; Lauroyl = CCCCCCCCCCCC(=O)*; Decanoyl = CCCCCCCCCC(=O)*; Octanoyl = CCCCCCCC(=O)*; Hexanoyl = CCCCCC(=O)*; Aib = CC(C)(N)C(=O)O; Propionyl = CCC(=O)*; Butyryl = CCCC(=O)*
Assays:
[1] = test system: PANC-1 cells; test: CyQUANT Direct cell proliferation assay, comparative cytotoxicity assay under 'low glucose'; format: cell-based, human; details: 24 h exposure; for pIC50: 'low glucose' DMEM (no glucose added), 457 pM to 9 µM, three independent experiments each in technical duplicate; for AUC, CyQUANT Direct, PANC-1 / Emax @ 9 µM, CyQUANT Direct, PANC-1: 'low glucose', three independent experiments in duplicate; for AUC, CyQUANT Direct, PANC-1: area under viability-concentration curve, baseline y = 0; for Emax @ 9 µM, CyQUANT Direct, PANC-1: response (percent viability) at highest concentration 9 µM
Source text: (§1) Endpoint fluorescence was quantified as described above.

[2] = test system: BxPC-3 cells; test: as above; format: cell-based, human; details: 24 h exposure; for pIC50: 'low glucose' RPMI 1640 (no glucose added), 50.8 pM to 1 µM, three independent experiments each in technical duplicate; for AUC, CyQUANT Direct, BxPC-3 / Emax @ 1 µM, CyQUANT Direct, BxPC-3: 'low glucose', three independent experiments in duplicate; for AUC, CyQUANT Direct, BxPC-3: area under viability-concentration curve, baseline y = 0; for Emax @ 1 µM, CyQUANT Direct, BxPC-3: response (percent viability) at highest concentration 1 µM
Source text: as §1

[3] = test system: PANC-1 cells; test: PrestoBlue cell viability assay, comparative cytotoxicity assay under 'low glucose'; format: cell-based, human; details: 24 h exposure; for pIC50: 'low glucose' DMEM (no glucose added), 457 pM to 9 µM, three independent experiments each in technical duplicate; for AUC, PrestoBlue, PANC-1 / Emax @ 9 µM, PrestoBlue, PANC-1: 'low glucose', three independent experiments in duplicate; for AUC, PrestoBlue, PANC-1: area under viability-concentration curve, baseline y = 0; for Emax @ 9 µM, PrestoBlue, PANC-1: response (percent viability) at highest concentration 9 µM
Source text: as §1

[4] = test system: BxPC-3 cells; test: as above; format: cell-based, human; details: 24 h exposure; for pIC50: 'low glucose' RPMI 1640 (no glucose added), 50.8 pM to 1 µM, three independent experiments each in technical duplicate; for AUC, PrestoBlue, BxPC-3 / Emax @ 1 µM, PrestoBlue, BxPC-3: 'low glucose', three independent experiments in duplicate; for AUC, PrestoBlue, BxPC-3: area under viability-concentration curve, baseline y = 0; for Emax @ 1 µM, PrestoBlue, BxPC-3: response (percent viability) at highest concentration 1 µM
Source text: as §1

[5] = test system: PANC-1 cells; details: 24 h exposure, medium with or without 5 mM glucose, up to 9 µM
Procedure: (§2) Cells were seeded at a density of 25,000 cells/well (BxPC-3) and 30,000 cells/well (PANC-1) in Nunc MicroWell 96-Well Black Optical-Bottom Plates with Polymer Base (total volume: 100 µL). Cells were first incubated overnight at 37 °C, 5% CO2 to permit adherence, after which the medium in each well was aspirated, briefly washed once with 100 µL/well of PBS (pH 7.4) and replaced with 100 µL of either RPMI 1640 (BxPC-3, #11879020) or DMEM (PANC-1, #11966025) supplemented with or without 5 mM glucose to create the ‘normal glucose’ and ‘low glucose’ media, respectively. This 5 mM glucose concentration was selected to reflect the physiological concentration of glucose in plasma. Each well was then exposed to the peptides in duplicate at a concentration range of 50.8 pM to 1 µM (BxPC-3) or 457 pM to 9 µM (PANC-1) for 24 h (threefold serial dilution in the corresponding ‘normal glucose’ or ‘low glucose’ media, ten steps). Endpoint fluorescence was quantified as described above.
(§3) Blank correction (wells containing medium only) was first performed on the raw fluorescence–concentration data from the plate reader. Cell viability was then calculated as a percentage by normalizing to the fluorescence of the wells containing the lowest drug concentration (50.8 pM for BxPC-3, 457 pM for PANC-1). The resulting data from three independent experiments (each in technical duplicate) was then plotted on GraphPad Prism 9 and analyzed using the built-in ‘[Inhibitor] vs. response—Variable slope (four parameters)’ equation.

[6] = test system: BxPC-3 cells; test: Initial cytotoxicity assay (PrestoBlue and CyQUANT Direct Confirmation Assay), 25 mM glucose; format: cell-based, human; details: 3-day (72 h) incubation, RPMI-1640 with 25 mM glucose, up to highest concentration tested of 1 µM, both viability assays
Procedure: The CyQUANT™ Direct Cell Proliferation Assay was subsequently performed by mixing the CyQUANT™ Direct nucleic acid stain, CyQUANT™ Direct background suppressor I, and PBS (pH 7.4) as per the vendor instructions, then adding 100 µL of this mixture into each well. The plate was returned into the incubator for a further 1 h, and the endpoint fluorescence bottom-read at the Ex/Em wavelength of 485/538 nm on the SpectraMax iD3 plate reader. Blank wells (medium only) and two negative controls—(1) cells + medium, (2) cells + medium + 0.3% v/v DMSO (equivalent to 1 µM peptide)—were set up in the plate for each experiment.

[7] = test system: BxPC-3 cells; details: 24 h exposure, medium with or without 5 mM glucose, up to 1 µM
Procedure: as §2, §3

Compound	pIC50 [1]	AUC, CyQUANT Direct, PANC-1 [1]	Emax @ 9 µM, CyQUANT Direct, PANC-1 [1]	pIC50 [2]	AUC, CyQUANT Direct, BxPC-3 [2]	Emax @ 1 µM, CyQUANT Direct, BxPC-3 [2]	pIC50 [3]	AUC, PrestoBlue, PANC-1 [3]	Emax @ 9 µM, PrestoBlue, PANC-1 [3]	pIC50 [4]	AUC, PrestoBlue, BxPC-3 [4]	Emax @ 1 µM, PrestoBlue, BxPC-3 [4]	Cytotoxicity against PANC-1 under 'low glucose' vs 'normal glucose' (in words) [5]	Inhibition of proliferation of BxPC-3 cells (in words) [6]	Cytotoxicity against BxPC-3 under 'low glucose' vs 'normal glucose' (in words) [7]
CCCCCCCCCC(=O)N1CCC[C@H]1C(=O)N[C@@H](CC1CCCCC1)C(=O)NC(C)(C)C(=O)NC(C)(C)C(=O)N[C@H](C(=O)N[C@H](C(=O)NC(C)(C)C(=O)NC(C)(C)C(=O)N[C@@H](C)CN(C)CCO)C(C)C)[C@@H](C)CC [(18)] (Decanoyl-P[Cha][Aib][Aib]IV[Aib][Aib]-{Alaψ(CH2NMeCH2CH2OH)})	5.66	44.7 ×10^−5	41.7%	6.70	3.9 ×10^−5	30.0%	6.70	22.2 ×10^−5	3.3%	6.70	3.3 ×10^−5	5.5%	–	–	–
CCCCCCCCCCCC(=O)N1CCC[C@H]1C(=O)N[C@@H](CC1CCCCC1)C(=O)NC(C)(C)C(=O)NC(C)(C)C(=O)N[C@H](C(=O)N[C@H](C(=O)NC(C)(C)C(=O)NC(C)(C)C(=O)N[C@@H](C)CN(C)CCO)C(C)C)[C@@H](C)CC [(19)] (Lauroyl-P[Cha][Aib][Aib]IV[Aib][Aib]-{Alaψ(CH2NMeCH2CH2OH)})	6.10	38.9 ×10^−5	26.4%	7.00	2.6 ×10^−5	18.3%	6.70	21.4 ×10^−5	4.7%	7.00	1.6 ×10^−5	4.6%	–	–	–
CC[C@H](C)[C@H](NC(=O)C(C)(C)NC(=O)C(C)(C)NC(=O)[C@H](CC1CCCCC1)NC(=O)[C@@H]1CCCN1C(C)=O)C(=O)N[C@H](C(=O)NC(C)(C)C(=O)NC(C)(C)C(=O)N[C@@H](C)CN(C)CCO)C(C)C [(13)] (Ac-P[Cha][Aib][Aib]IV[Aib][Aib]-{Alaψ(CH2NMeCH2CH2OH)})	5.07	67.8 ×10^−5	48.1%	< 6.00	11 ×10^−5	111.3%	5.22	58.9 ×10^−5	34.6%	< 6.00	9.5 ×10^−5	94.0%	sufficient to induce cytotoxic effects	–	–
trichoderin A [(3)]	5.82	41.0 ×10^−5	28.2%	6.40	4.9 ×10^−5	19.6%	6.52	21.7 ×10^−5	4.7%	6.40	5.4 ×10^−5	3.6%	–	only partially inhibited the proliferation	–
CCCC(=O)N1CCC[C@H]1C(=O)N[C@@H](CC1CCCCC1)C(=O)NC(C)(C)C(=O)NC(C)(C)C(=O)N[C@H](C(=O)N[C@H](C(=O)NC(C)(C)C(=O)NC(C)(C)C(=O)N[C@@H](C)CN(C)CCO)C(C)C)[C@@H](C)CC [(15)] (Butyryl-P[Cha][Aib][Aib]IV[Aib][Aib]-{Alaψ(CH2NMeCH2CH2OH)})	5.32	50.3 ×10^−5	53.7%	6.30	5.8 ×10^−5	33.8%	6.05	33.6 ×10^−5	31.0%	6.30	5.8 ×10^−5	16.3%	–	–	–
CCCCCCCC(=O)N1CCC[C@H]1C(=O)N[C@@H](CC1CCCCC1)C(=O)NC(C)(C)C(=O)NC(C)(C)C(=O)N[C@H](C(=O)N[C@H](C(=O)NC(C)(C)C(=O)NC(C)(C)C(=O)N[C@@H](C)CN(C)CCO)C(C)C)[C@@H](C)CC [(17)] (Octanoyl-P[Cha][Aib][Aib]IV[Aib][Aib]-{Alaψ(CH2NMeCH2CH2OH)})	5.70	43.7 ×10^−5	31.6%	6.30	5.6 ×10^−5	33.5%	6.22	25.5 ×10^−5	8.1%	6.40	5.1 ×10^−5	20.0%	–	–	–
CCC(=O)N1CCC[C@H]1C(=O)N[C@@H](CC1CCCCC1)C(=O)NC(C)(C)C(=O)NC(C)(C)C(=O)N[C@H](C(=O)N[C@H](C(=O)NC(C)(C)C(=O)NC(C)(C)C(=O)N[C@@H](C)CN(C)CCO)C(C)C)[C@@H](C)CC [(14)] (Propionyl-P[Cha][Aib][Aib]IV[Aib][Aib]-{Alaψ(CH2NMeCH2CH2OH)})	5.15	51.8 ×10^−5	51.5%	6.22	6.8 ×10^−5	27.3%	5.74	38.4 ×10^−5	31.5%	6.22	6.8 ×10^−5	25.1%	–	–	–
CC[C@H](C)[C@H](NC(=O)C(C)(C)NC(=O)C(C)(C)NC(=O)[C@H](CC1CCCCC1)NC(=O)[C@@H]1CCCN1)C(=O)N[C@H](C(=O)NC(C)(C)C(=O)NC(C)(C)C(=O)N[C@@H](C)CN(C)CCO)C(C)C [(12)] (H-P[Cha][Aib][Aib]IV[Aib][Aib]-{Alaψ(CH2NMeCH2CH2OH)})	< 5.05	92.6 ×10^−5	107.0%	< 6.00	11 ×10^−5	115.0%	< 5.05	90.6 ×10^−5	101.0%	< 6.00	10.2 ×10^−5	104.0%	inactivity	–	inactivity
CCCCCC(=O)N1CCC[C@H]1C(=O)N[C@@H](CC1CCCCC1)C(=O)NC(C)(C)C(=O)NC(C)(C)C(=O)N[C@H](C(=O)N[C@H](C(=O)NC(C)(C)C(=O)NC(C)(C)C(=O)N[C@@H](C)CN(C)CCO)C(C)C)[C@@H](C)CC [(16)] (Hexanoyl-P[Cha][Aib][Aib]IV[Aib][Aib]-{Alaψ(CH2NMeCH2CH2OH)})	5.70	42.1 ×10^−5	41.0%	6.40	5.2 ×10^−5	21.0%	6.30	24.3 ×10^−5	7.7%	6.40	5.0 ×10^−5	7.1%	–	–	–

From publication PMC9866366 (Pharmaceutics, 2023)
